Results reported in patent US20250171438A1 (Agios Pharmaceuticals, Inc., priority 2022, published 2025).

Each compound was assayed against T1, human PAH with the R408W mutation (Homo sapiens, UniProt P00439, R408W) (assay: Cell Based Phenylalanine Flux Assay). Settings: A375 cells expressing human R408W PAH; 24 hrs compound incubation; 13C-Tyrosine by LC-MS; average where tested multiple times; read-out: AC50.
T1 construct: expressed in transfected cells
T1 sequence (P00439 1-452 R408W): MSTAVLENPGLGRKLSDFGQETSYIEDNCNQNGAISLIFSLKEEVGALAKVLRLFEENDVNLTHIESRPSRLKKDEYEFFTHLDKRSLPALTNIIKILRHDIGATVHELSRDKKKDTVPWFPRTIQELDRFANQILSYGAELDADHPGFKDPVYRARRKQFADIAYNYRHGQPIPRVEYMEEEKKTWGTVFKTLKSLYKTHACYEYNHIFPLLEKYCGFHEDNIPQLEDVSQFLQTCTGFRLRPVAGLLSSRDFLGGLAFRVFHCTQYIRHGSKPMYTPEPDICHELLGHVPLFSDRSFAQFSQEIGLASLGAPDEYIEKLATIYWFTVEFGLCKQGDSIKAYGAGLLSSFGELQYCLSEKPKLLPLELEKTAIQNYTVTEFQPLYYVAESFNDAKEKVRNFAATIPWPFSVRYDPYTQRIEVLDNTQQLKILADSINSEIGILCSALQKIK

| SMILES | AC50 [nM] |
| --- | --- |
| Cn1cc(-c2ccc3c(C(=O)N4CCc5[nH]cnc5[C@@H]4c4nc5ccccc5s4)cnn3c2)cn1 [Example 1214, (R)-(4-(benzo[d]thiazol-2-yl)-6,7-dihydro-1H-imidazo[4,5-c]pyridin-5(4H)-yl)(6-(1-methyl-1H-pyrazol-4-yl)pyrazolo[1,5-a]pyridin-3-yl)methanone] | 1000 to 5000 |
| CC(C)n1cc(-c2ncc(C(=O)N3CCc4[nH]cnc4[C@H]3c3nc4ccccc4s3)o2)cn1 [Example 1415] | < 500 |
| Cc1nc(C(C)(C)O)oc1C(=O)N1CCc2[nH]cnc2[C@@H]1c1nc2c(F)cccc2s1 [Example 1472, (R)-(4-(4-fluorobenzo[d]thiazol-2-yl)-6,7-dihydro-1H-imidazo[4,5-c]pyridin-5(4H)-yl)(2-(2-hydroxypropan-2-yl)-4-methyloxazol-5-yl)methanone] | 1000 to 5000 |
| CC(C)(c1nc(C(F)F)c(C(=O)N2CCc3[nH]cnc3[C@@H]2c2nc3c(F)cccc3s2)o1)S(C)(=O)=O [Example 2006, (R)-(4-(difluoromethyl)-2-(2-(methylsulfonyl)propan-2-yl)oxazol-5-yl)(4-(4-fluorobenzo[d]thiazol-2-yl)-6,7-dihydro-1H-imidazo[4,5-c]pyridin-5(4H)-yl)methanone] | 1000 to 5000 |
| O=C(c1cnc(-c2ccccc2)s1)N1CCc2[nH]cnc2[C@@H]1c1nc2ccccc2s1 [Example 1204, (R)-(4-(benzo[d]thiazol-2-yl)-6,7-dihydro-1H-imidazo[4,5-c]pyridin-5(4H)-yl)(2-phenylthiazol-5-yl)methanone] | 1000 to 5000 |
| O=C(CC1CCCC1)N1CCc2[nH]cnc2[C@H]1c1nc2ccccc2[nH]1 [Example 929, (S)-1-(4-(1H-benzo[d]imidazol-2-yl)-6,7-dihydro-1H-imidazo[4,5-c]pyridin-5(4H)-yl)-2-cyclopentylethanone] | < 500 |
| O=C(CCC1CCCC1)N1CCc2[nH]cnc2[C@@H]1c1nc2ccccc2s1 [Example 1016, (R)-1-(4-(benzo[d]thiazol-2-yl)-6,7-dihydro-1H-imidazo[4,5-c]pyridin-5(4H)-yl)-3-cyclopentylpropan-1-one] | 1000 to 5000 |
| O=C(c1cn[nH]c1Cl)N1CCc2[nH]cnc2[C@H]1c1nc2c(F)cccc2s1 [Example 1862] | 500 to 1000 |
| CC(C)(O)c1ncc(C(=O)N2CCc3[nH]cnc3[C@H]2c2nc3ccccc3s2)o1 [Example 1448] | 500 to 1000 |
| O=C(c1cnn2ccc(Br)cc12)N1CCc2[nH]cnc2[C@@H]1c1nc2ccc(Br)cc2[nH]1 [Example 998, (R)-(4-(6-bromo-1H-benzo[d]imidazol-2-yl)-6,7-dihydro-1H-imidazo[4,5-c]pyridin-5(4H)-yl)(5-bromopyrazolo[1,5-a]pyridin-3-yl)methanone] | > 5000 |
| Cc1ccc2c(C(=O)N3CCc4[nH]cnc4[C@@H]3c3nc4ccccc4s3)cnn2c1 [Example 1088, (R)-(4-(benzo[d]thiazol-2-yl)-6,7-dihydro-1H-imidazo[4,5-c]pyridin-5(4H)-yl)(6-methylpyrazolo[1,5-a]pyridin-3-yl)methanone] | > 5000 |
| O=C(C1CC1)N1CCc2[nH]cnc2[C@H]1c1nc2cccc(F)c2s1 [Example 1259, (S)-cyclopropyl(4-(7-fluorobenzo[d]thiazol-2-yl)-6,7-dihydro-1H-imidazo[4,5-c]pyridin-5(4H)-yl)methanone] | 500 to 1000 |
| O=C(c1cnco1)N1CCc2[nH]cnc2[C@@H]1c1nc2c(F)cccc2s1 [Example 1224, (R)-(4-(4-fluorobenzo[d]thiazol-2-yl)-6,7-dihydro-1H-imidazo[4,5-c]pyridin-5(4H)-yl)(oxazol-5-yl)methanone] | 1000 to 5000 |
| O=C(c1cnn2ccc(F)cc12)N1CCc2[nH]cnc2[C@H]1c1nc2ccccc2[nH]1 [Example 944, (S)-(4-(1H-benzo[d]imidazol-2-yl)-6,7-dihydro-1H-imidazo[4,5-c]pyridin-5(4H)-yl)(5-fluoropyrazolo[1,5-a]pyridin-3-yl)methanone] | 500 to 1000 |
| CC(C)(O)c1nnc(C(=O)N2CC3(CC3)c3[nH]cnc3[C@H]2c2nc3ccccc3s2)o1 [Example 1696, (S)-(4′-(benzo[d]thiazol-2-yl)spiro[cyclopropane-1,7′-imidazo[4,5-c]pyridin]-5′(1′H,4′H,6′H)-yl)(5-(2-hydroxypropan-2-yl)-1,3,4-oxadiazol-2-yl)methanone] | 500 to 1000 |
| CC(O)c1nc(Br)c(C(=O)N2CCc3[nH]cnc3[C@@H]2c2nc3c(F)cccc3s2)o1 (single isomer, unassigned) [Example 2059] | 1000 to 5000 |
| O=C(CC1CC(F)C1)N1CCc2[nH]cnc2[C@H]1c1nc2ccccc2s1 (stereo partly shown) [Example 1245] | < 500 |
| O=C(c1nnc(-c2ccc(C(F)(F)F)cn2)o1)N1CCc2[nH]cnc2[C@H]1c1nc2ccccc2s1 [Example 1830] | 500 to 1000 |
| O=C(c1cnc(N2CCCC2)s1)N1CCc2[nH]cnc2[C@@H]1c1nc2ccccc2s1 [Example 1324, (R)-(4-(benzo[d]thiazol-2-yl)-6,7-dihydro-1H-imidazo[4,5-c]pyridin-5(4H)-yl)(2-(pyrrolidin-1-yl)thiazol-5-yl)methanone] | 1000 to 5000 |
| Cc1nc(C(C)(C)C)oc1C(=O)N1CCc2[nH]cnc2[C@@H]1c1nc2ccccc2s1 [Example 1432, (R)-(4-(benzo[d]thiazol-2-yl)-6,7-dihydro-1H-imidazo[4,5-c]pyridin-5(4H)-yl)(2-(tert-butyl)-4-methyloxazol-5-yl)methanone] | 1000 to 5000 |
| Cn1cc(-c2ncc(C(=O)N3CCc4[nH]cnc4[C@H]3c3nc4ccccc4s3)s2)c(C(F)(F)F)n1 [Example 1389] | < 500 |
| CC(C)(O)c1c(Br)ccc2c(C(=O)N3CCc4[nH]cnc4[C@@H]3c3nc4ccccc4s3)cnn12 [Example 1476, (R)-(4-(benzo[d]thiazol-2-yl)-6,7-dihydro-1H-imidazo[4,5-c]pyridin-5(4H)-yl)(6-bromo-7-(2-hydroxypropan-2-yl)pyrazolo[1,5-a]pyridin-3-yl)methanone] | 1000 to 5000 |
| CC(O)c1nc(Cl)c(C(=O)N2CCc3[nH]cnc3[C@@H]2c2nc3c(F)cccc3s2)o1 (single isomer, unassigned) [Example 2082] | 1000 to 5000 |
| CC1(c2nc(C(F)F)c(C(=O)N3CCc4[nH]cnc4[C@@H]3c3nc4ccccc4s3)o2)CC1 [Example 1852, (R)-(4-(benzo[d]thiazol-2-yl)-6,7-dihydro-1H-imidazo[4,5-c]pyridin-5(4H)-yl)(4-(difluoromethyl)-2-(1-methylcyclopropyl)oxazol-5-yl)methanone] | < 500 |
| Cn1cc(-c2nnc(C(=O)N3CCc4[nH]cnc4[C@@H]3c3nc4c(F)cccc4s3)o2)c(C(F)(F)F)n1 [Example 1928, (R)-(4-(4-fluorobenzo[d]thiazol-2-yl)-6,7-dihydro-1H-imidazo[4,5-c]pyridin-5(4H)-yl)(5-(1-methyl-3-(trifluoromethyl)-1H-pyrazol-4-yl)-1,3,4-oxadiazol-2-yl)methanone] | 1000 to 5000 |
| O=C(c1nnc(-c2ccccn2)o1)N1CCc2[nH]cnc2[C@H]1c1nc2ccccc2s1 [Example 1439] | < 500 |
| O=C(c1nc2ccccc2s1)N1CCc2[nH]cnc2[C@@H]1c1nc2ccccc2s1 [Example 1002, (R)-benzo[d]thiazol-2-yl(4-(benzo[d]thiazol-2-yl)-6,7-dihydro-1H-imidazo[4,5-c]pyridin-5(4H)-yl)methanone] | 1000 to 5000 |

Same assay, conditions: A375 cells expressing human R408W PAH; 24 hrs with compound; 13C-Tyrosine by LC-MS; average where tested multiple times; read-out: AC50

| SMILES | AC50 [nM] |
| --- | --- |
| CC(=O)Cn1ncc(C(=O)N2CCc3[nH]cnc3[C@@H]2c2nc3c(F)cccc3s2)c1Cl (single isomer, unassigned) | > 5000 |
| COCc1cc(C(=O)N2CCc3[nH]cnc3C2c2nc3c(F)cccc3s2)[nH]n1 (stereo not shown) | > 5000 |
| NC(=O)c1ncoc1C(=O)N1CCc2[nH]cnc2C1c1nc2ccccc2s1 (stereo not shown) | > 5000 |
| Cc1nc(C(=O)N2CCc3[nH]cnc3C2c2nc3c(F)cccc3s2)n(C)n1 (stereo not shown) | > 5000 |
| Cn1cnc(C(=O)N2CCc3[nH]cnc3C2c2nc3c(F)cccc3s2)n1 (stereo not shown) | > 5000 |
| O=C(Cc1cscn1)N1CCc2[nH]cnc2[C@H]1c1nc2ccccc2[nH]1 [(S)-1-(4-(1H-benzo[d]imidazol-2-yl)-6,7-dihydro-1H-imidazo[4,5-c]pyridin-5(4H)-yl)-2-(thiazol-4-yl)ethanone] | 1000 to 5000 |
| Cc1nc(C=CC2CC2)oc1C(=O)N1CCCc2[nH]cnc2C1c1nc2ccccc2s1 (stereo not shown) | > 5000 |
| O=C(Cc1nncs1)N1CCc2[nH]cnc2C1c1nc2ccccc2s1 (stereo not shown) | 1000 to 5000 |
| Cn1cc(-c2ncc(C(=O)N3CCc4[nH]cnc4[C@H]3c3nc4ccccc4[nH]3)s2)cn1 [(S)-(4-(1H-benzo[d]imidazol-2-yl)-6,7-dihydro-1H-imidazo[4,5-c]pyridin-5(4H)-yl)(2-(1-methyl-1H-pyrazol-4-yl)thiazol-5-yl)methanone] | > 5000 |
| O=C(c1nnc(-c2ccccn2)o1)N1CCCc2[nH]cnc2C1c1nc2ccccc2[nH]1 (stereo not shown) | > 5000 |
| O=C(c1cnn(CCO)c1Cl)N1CCc2[nH]cnc2C1c1nc2c(F)cccc2s1 (stereo not shown) | > 5000 |
| O=C(c1nc2ccccc2s1)N1CCc2[nH]cnc2C1c1nc2c(F)cccc2s1 (stereo not shown) | > 5000 |
| Nc1nnc(CCC(=O)N2CCc3[nH]cnc3C2c2nc3ccccc3[nH]2)s1 (stereo not shown) | > 5000 |
| Cc1ncoc1C(=O)N1CC2(CC2)c2[nH]cnc2C1c1nc2c(F)cccc2s1 (stereo not shown) | 1000 to 5000 |
| O=C(Cc1nccs1)N1CCc2[nH]cnc2C1c1nc2cccc(F)c2s1 (stereo not shown) | 1000 to 5000 |
| O=C(c1ncco1)N1CCc2[nH]cnc2C1c1nc2cc(F)ccc2s1 (stereo not shown) | 1000 to 5000 |
